Results on 9 molecules are retold here after patent US20260355184A1, “SMALL MOLECULE DEGRADERS OF HIV-1 TAT PROTEIN” (priority 2022, published 2026).

In one series the test system is HIV NL4.3 strain. Briefly: HIV infectivity assay, reporter cell line HeLa-CD4-LTR-LacZ, β-Gal activity (Tat protein inhibition). Type of series: cell-based, HIV-1 (NL4.3). In a few lines: (§1)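 HeLa-CD4-LTR-LacZ reporter cells (β-Gal under HIV 5′ LTR) infected with HIV NL4.3; β-Gal activity read 72 h post infection, with parallel Cell-Titer-Glo viability. OM10.1 carry a single wild-type provirus; ACH-2 a single provirus with TAR C37T mutation, defective Tat-TAR feedback.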

The subject of a further series is HeLa-CD4-LTR-LacZ cells. Briefly: Cytotoxicity assay, Cell-Titer-Glo, HeLa-CD4-LTR-LacZ. The settings on record: read-out: Infectivity CC50, HeLa-CD4-LTR-LacZ. In a few lines:
as §1

Experiment in series [1]: as above
The settings on record: human, hela-cd4-ltr-lacz cells, Infectivity CC50, HeLa-CD4-LTR-LacZ. In a few lines:
as §1

In another series the target is T1, Flag-Tat (Human immunodeficiency virus type 1 (HXB3 ISOLATE), UniProt P69698).
T1 construct: Tat 86 aa likely (9 lysines)
T1 sequence (P69698 whole entry): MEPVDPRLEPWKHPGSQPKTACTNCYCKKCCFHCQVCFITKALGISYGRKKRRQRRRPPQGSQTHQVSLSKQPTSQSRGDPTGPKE
Briefly: Degradation assay: Flag-Tat in HEK293T cells, western blot. Type of series: cell-based, HIV. The settings on record: for Flag-Tat degradation / steady state: HEK293T, western blot. As for the experimental part:
Next, the effect of the three leads on the alteration of Tat steady state levels was assessed. Tat expression from an integrated provirus, or from HIV acute infection is generally too low to be detected by western blot. Furthermore, antibodies against Tat are known for their lack of avidity. Tat degradation was thus assessed upon transfection. Flag-Tat or Flag-GFP were individually transfected into HEK293T and 24 hrs later, TT-44856, TT-44863 or TT-44881 were added to the culture, followed by Western blot 24 hrs later (dubbed “degradation assay”) (FIG. 5A). […] These cells were treated with TNFα (previously determined not be degraded by the three leads in FIG. 2D) in the presence of TT-44856, TT-44863 or TT-44881, followed by western blot with an anti-Flag antibody 17 hrs later. […] Finally, the leads' impact on recombinant Tat protein in HEK293T cells was assessed (FIG. 5D). HEK293T cells were incubated with recombinant Tat for 4 hrs to allow Tat internalization, followed by several thorough washes to remove unincorporated Tat. Cells were then incubated with all three leads (or Triptolide) for an additional 2 hrs. Cells were lysed and analyzed by western blot with an anti-Tat serum.
Degradation of Tat has been reported in the literature in multiple ways, including the lysosomal pathway^23, the ubiquitin-independent 20S proteasomal pathway (due to its unfolded structure)^24,25, and the ubiquitin-dependent 26S proteasomal pathway^26. It was first assessed whether Tat was targeted to the lysosomal pathway by the lead compounds. HEK293T cells were transfected with Flag-Tat for 24 hrs, incubated with the compounds for an additional 24 hrs, then treated for 8 hrs with either 100 μM chloroquine or 50 mM NH4Cl, both known to inhibit lysosomal hydrolases by reducing acidification. […] Both the 20S and the 26S proteasomal pathways were next investigated using MG132, an inhibitor of the catalytic […] of 20S present in both pathways^27. The degradation assay was carried out as above, but compounds were simultaneously incubated with MG132 20 μM or DMSO for 17 hrs followed by western blot. In the presence of MG132, Tat degradation was rescued, but the rescue was higher in the presence of the lead compounds (FIG. 6B).
Protein ubiquitination occurs by sequential recruitment of ubiquitin-activating enzyme E1, ubiquitin-conjugating enzyme E2, and ubiquitin ligase E3 (using ubiquitin, substrate protein, and ATP). The selectivity in protein ubiquitination is conferred by E3 ubiquitin ligases that recognize the substrate proteins^29 and the human genome contains more than 600 E3 ubiquitin ligases^29. To determine whether the small molecule leads trigger the 20S or the 26S proteasomal pathways, the Tat degradation assay was performed in the presence of commercially available E3 ligase inhibitors, including Lenalidomide a E3 ubiquitin ligase Cereblon inhibitor. Cereblon has not been previously reported to ubiquitinate Tat. The degradation assays were performed as above with Lenalidomide (40 μM) or DMSO incubation for 4 hrs in the presence of the lead molecules (FIG. 7A). […] To confirm the engagement of Cereblon in the mechanism of action of the lead compounds, shRNAs were used to stably knock down Cerebelon, or CD8 control, in HEK293T cells, and the degradation assay for TT-44856 was performed.
The involvement of the ubiquitous VHL E3 ligase in the activity of TT-44881 inducing Tat degradation was also investigated. HEK293T cells overexpressing Tat protein and VHL siRNAs (or si control) were treated with either TT-44881 (60 μM) and DMSO or TT-44881 with a VHL PROTAC (CM11, 500 nM) for 24 hours. siRNAs and PROTACs were used together to maximize the depletion of both VHL isoforms (30 and 19 kDa).

A further series concerns OM10.1 cells. Briefly: Cell-associated HIV Gag mRNA expression / HIV transcription in latently infected OM10.1 cells. Type of series: cell-based. To be noted: 12-day treatment with ARVs. As for the experimental part:
(§2) Next, the activity of these leads against HIV infection was evaluated using the reporter cell line HeLa-CD4-LTR-LacZ, which stably expresses the β-galactosidase (β-Gal) gene under the control of the HIV 5′ LTR. The HIV NL4.3 strain was used for these studies and β-Gal activity was measured 72 hrs post infection (FIG. 3A). Cytotoxicity assays using Cell-Titer-Glo were performed in parallel to assess cell viability (FIG. 3A). […] Their anti-HIV activity was further assessed in acute replication of Jurkat T cells with the NL4.3 strain (FIG. 3A). […] These OM10.1 cells contain a single integrated wild-type provirus, while ACH-2 cells contain a single integrated provirus with a TAR mutation C37T, defective Tat-TAR feedback loop (FIG. 3B).

The subject of series [2] is TAR (Flag-Tat-Rev fusion protein). Briefly: Flag-Tat-Rev fusion protein transactivation via TAR. The format is cell-based, HIV-1. To be noted: TAR reporter.
Another series relates to HIV. The settings on record: combined with ART; CD4+ T cells from infected individuals and humanized mouse model; cited from earlier work.
For the next series, the system named is ACH-2 cells. Put plainly: Cell-associated HIV Gag mRNA expression / HIV transcription in latently infected ACH-2 cells. The format is cell-based. To be noted: ACH-2; 12-day treatment with ARVs. On the procedure: as §2
The test system of series [3] is TAR-SIIB promoter (Flag-Tat-Rev fusion protein). Briefly: Flag-Tat-Rev fusion protein transactivation of TAR-SIIB promoter. The format is cell-based, HIV-1. To be noted: SIIB reporter HEK293T. On the procedure:
FIG. 4. […] Shown is n=1. […] Shown is n=1. ARVs: antiretrovirals: 100 nM Efavirenz, 200 nM Lamivudine and 200 nM Raltegravir. C. […] SIIB: a reporter HEK293T stable cell line where the essential apical region of TAR was replaced by the 29-nucleotide stem-loop IIB (SIIB) subdomain of the HIV-1 RRE. A Tat-Rev fusion protein activates transcription of luciferase when Rev binds SIIB, bringing Tat and P-TEFb to RNAPII at the HIV promoter. Shown is mean±SEM of n=4.

A further series concerns the target T2, recombinant Tat (Human immunodeficiency virus type 1 (HXB3 ISOLATE), UniProt P69698).
T2 construct: detected with anti-Tat serum
Briefly: Recombinant Tat stability in HEK293T cells, western blot. To be noted: 4 hrs recombinant Tat then 2 hrs compound, n=1. Type of series: cell-based, HIV. On the procedure:
Next, the effect of the three leads on the alteration of Tat steady state levels was assessed. Tat expression from an integrated provirus, or from HIV acute infection is generally too low to be detected by western blot. Furthermore, antibodies against Tat are known for their lack of avidity. Tat degradation was thus assessed upon transfection. Flag-Tat or Flag-GFP were individually transfected into HEK293T and 24 hrs later, TT-44856, TT-44863 or TT-44881 were added to the culture, followed by Western blot 24 hrs later (dubbed “degradation assay”) (FIG. 5A). […] Finally, the leads' impact on recombinant Tat protein in HEK293T cells was assessed (FIG. 5D). HEK293T cells were incubated with recombinant Tat for 4 hrs to allow Tat internalization, followed by several thorough washes to remove unincorporated Tat. Cells were then incubated with all three leads (or Triptolide) for an additional 2 hrs. Cells were lysed and analyzed by western blot with an anti-Tat serum.

Setting [4] is: read-out: Infectivity IC50, HeLa-CD4-LTR-LacZ, analogs of TT-44856 (Table 3).
[5] abbreviates: Human immunodeficiency virus 1, read-out: Infectivity IC50, HeLa-CD4-LTR-LacZ, analogs of TT-44881 (Table 1).

Read-outs that look alike come from different tables or passages of the source.

T2 sequence (P69698 whole entry): as above

As to `Cc1nccn1CCCNC(=O)C(C)(c1ccccc1)c1ccccc1` [3-53], the IC50 (usually the concentration that gives 50% inhibition) in the series with HIV NL4.3 strain (setting [4]) is 1 to 10 µM. In addition, the CC50 (usually the concentration at which the toxic effect on the cells reaches its halfway point) in the series on HeLa-CD4-LTR-LacZ cells (analogs of TT-44856 (Table 3)) was 50 to 100 µM.
Take `O=C(NCCCn1ccnc1)C(c1ccccc1)c1ccccc1` [3-71]: the IC50 in the series on HIV NL4.3 strain (setting [4]) is 1 to 30 µM. Further, the CC50 in the series on HeLa-CD4-LTR-LacZ cells (analogs of TT-44856 (Table 3)) was above 100 µM.
For the molecule `COc1ccc(C#N)cc1NC(=O)Cn1cccc(Cl)c1=O` [TT-46766], the IC50 with HIV NL4.3 strain (Human immunodeficiency virus 1, read-out: Infectivity IC50, HeLa-CD4-LTR-LacZ, analogs of TT-44863 (Table 2)) is above 100 µM. Moreover, the CC50 in [1] (analogs of TT-44863 (Table 2)) is above 100 µM. Further, the “Flag-Tat degradation / steady state” value on Flag-Tat is given as “did not affect Flag-Tat steady state”.
`CN(C)[C@H]1C[C@@]23CC[C@@]4(O2)C(=CC[C@]2(C)C(c5ccc6ccncc6c5)=CC[C@H]24)C=C3[C@@H](O)[C@@H]1O` [dCA, didehydro-Cortistatin A, reference compound]: the “Gag mRNA / HIV transcription (in words)” value with OM10.1 cells is “only inhibited transcription in OM10.1 cells”. In addition, the “Flag-Tat-Rev / TAR” value in series [2] was “interfered with the Flag-Tat-Rev to TAR binding”. Also, the “transcription and viral rebound with ART” value in the series on HIV was “inhibits transcription and blocks viral rebound upon treatment interruption”.
Consider `CC(C)[C@]12O[C@H]1[C@@H]1O[C@]13[C@]1(O[C@H]1C[C@H]1C4=C(CC[C@@]13C)C(=O)OC4)[C@@H]2O` [Triptolide, reference compound], for which the “Gag mRNA / HIV transcription (in words)” value with OM10.1 cells and in the series with ACH-2 cells was “reduced Gag mRNA in both cell lines” in each case. Moreover, the “Flag-Tat-Rev transactivation of TAR-SIIB” value in series [3] was “inhibition of both TAR and TAR-SIIB”. In addition, the “Flag-Tat-Rev / TAR” value in [2] is “inhibition of both TAR and TAR-SIIB”. For the same molecule, the “Flag-Tat degradation / steady state” value at Flag-Tat is “nonspecifically degraded Flag-Tat”. At Flag-Tat (Lenalidomide 40 μM, 4 hrs), the “effect of Lenalidomide on compound induced Flag-Tat degradation” value was “did not engage the 26S proteasomal pathway, but only the 20S proteasomal pathway”. Moreover, on recombinant Tat, the “recombinant Tat degradation” value is “degraded Tat as opposed to the DMSO control”.
Turning to `CC(C)(C)OC(=O)COCCOCCOc1ccc(C(F)(F)F)cc1NC(=O)Cn1cc(C(F)(F)F)cc(Cl)c1=O` [compound 56], the IC50 in the series on HIV NL4.3 strain (read-out: Infectivity IC50, HeLa-CD4-LTR-LacZ, analogs of TT-44863 (Table 2)) was above 100 µM. Besides, the CC50 in the series with HeLa-CD4-LTR-LacZ cells (analogs of TT-44863 (Table 2)) was above 100 µM.
Take `O=C(NCCCN1CCCC1=O)c1nn(-c2ccccc2)c2c1CCCC2` [GB-02]: the IC50 in the series with HIV NL4.3 strain (read-out: Infectivity IC50, HeLa-CD4-LTR-LacZ, analogs of TT-44881 (Table 1)) was 50 to 100 µM. In the series on HeLa-CD4-LTR-LacZ cells (analogs of TT-44881 (Table 1)), the CC50 was above 100 µM.
For `CN(CCCN1CCCC1=O)C(=O)c1nn(-c2ccccc2)c2c1CCC2` [GB-04], in the series with HIV NL4.3 strain (setting [5]), the IC50 is above 100 µM. Further, in series [1] (analogs of TT-44881 (Table 1)), the CC50 was above 100 µM. Besides, the “Flag-Tat degradation / steady state” value on Flag-Tat was “did not affect Flag-Tat steady state”.
Regarding `O=C1CCCN1CCCN(Cc1ccccc1)C(=O)c1nn(-c2ccccc2)c2c1CCC2` [GB-09], the concentration for half-maximal inhibition (IC50) with HIV NL4.3 strain (setting [5]) was 25 to 50 µM. Also, the CC50 in series [1] (analogs of TT-44881 (Table 1)) was in the range of 25 to 50 µM.
